# Data: article PMC8409435 (Journal of molecular biology, 2021)
# Where no end group is shown, it is not given here.
# How the values were obtained:
# [1] = molecular target: PKA-C^E31V (catalytic α subunit of cAMP-dependent protein kinase A) (Homo sapiens, UniProt P17612, E32V); test: steady-state coupled enzyme assay; assay type: biochemical
# [2] = molecular target: PKA-C^WT (catalytic α subunit of cAMP-dependent protein kinase A) (Homo sapiens, UniProt P17612); test: steady-state coupled enzyme assay; assay type: biochemical
substance,measurement,setting,value
LRRASLG [Kemptide],steady-state coupled enzyme assay (kcat/KM),[1],0.46 ± 0.04
same,steady-state coupled enzyme assay (kcat/KM),[2],0.41 ± 0.05
